{
  "source": "paper PMC6961518",
  "about": "“Fe-HBED Analogs: A Promising Class of Iron-Chelate Contrast Agents for Magnetic Resonance Imaging” (Contrast Media & Molecular Imaging, 2019)",
  "key": {"[1]": {"test": "Ascorbic acid oxidation assay (redox stability)", "settings": "iron chelate 20 μM (30 mol%), ascorbic acid 67 μM in PBS, 45 minutes, air oxidation", "method": "The UV-Vis spectrum of an ascorbic acid solution (67 μM and 12 μg/mL) in PBS (3 mL) was recorded. The absorbance intensity at λmax = 265 nm was observed. An aliquot (30 μL) of the iron chelate of ethylenediaminetetraacetic acid (Fe-EDTA) in PBS (2 mM, 0.7 mg/mL) was added to afford a catalytic quantity of Fe-EDTA (20 μM, 30 mol%) with respect to ascorbic acid. The absorbance intensity (λmax = 265 nm) was recorded at intervals of 1 minute for a period of 45 minutes and the data normalized to the t0 absorbance. The experiment was then repeated identically using a solution of the iron chelate complex under investigation (20 μM, 30 mol%), and the results were plotted as a function of the percent initial ascorbic acid signal versus elapsed time (min)."}, "[2]": {"test": "Relaxivity determination (r1, r2) on Bruker minispec mq60", "type": "physicochemical", "settings": "PBS, 60 MHz, 40°C", "method": "A stock solution having a concentration of 1 mM of the CA of interest was prepared in phosphate-buffered saline (PBS), and the iron concentration was verified by elemental analysis. Separate 0.75 mM, 0.50 mM, and 0.25 mM samples were prepared from the stock by dilution in PBS, and T1 and T2 relaxations times were recorded in triplicate for each sample on a Bruker minispec mq60 instrument (60 MHz, 40°C). The relaxivities (r1 and r2) were obtained as the gradient of 1/Tx (x = 1, 2) plotted against Fe chelate concentration following linear least squares regression analysis."}, "[3]": {"design": "method as in PMID 16230904", "settings": "in water at 1.5 T; cited from earlier work"}, "[4]": {"settings": "cited from earlier work"}, "[5]": {"target": "bovine serum albumin (Bos taurus, UniProt P02769)", "sequence (P02769 25-607)": "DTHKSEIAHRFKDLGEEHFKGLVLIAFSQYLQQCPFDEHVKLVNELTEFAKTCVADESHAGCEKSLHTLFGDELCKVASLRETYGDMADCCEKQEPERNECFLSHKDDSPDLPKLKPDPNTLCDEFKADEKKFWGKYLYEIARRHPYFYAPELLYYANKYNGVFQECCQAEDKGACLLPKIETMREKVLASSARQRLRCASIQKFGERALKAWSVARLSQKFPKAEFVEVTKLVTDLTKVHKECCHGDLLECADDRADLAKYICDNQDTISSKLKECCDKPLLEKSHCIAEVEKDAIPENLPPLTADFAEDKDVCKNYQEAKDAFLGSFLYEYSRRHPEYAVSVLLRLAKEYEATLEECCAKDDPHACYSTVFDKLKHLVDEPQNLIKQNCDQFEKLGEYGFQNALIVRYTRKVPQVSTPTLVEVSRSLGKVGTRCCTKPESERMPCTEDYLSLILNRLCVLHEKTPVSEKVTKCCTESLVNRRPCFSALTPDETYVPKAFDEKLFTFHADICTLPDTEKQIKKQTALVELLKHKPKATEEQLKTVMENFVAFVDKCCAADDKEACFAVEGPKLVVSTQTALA", "test": "Serum protein binding assay (ultrafiltration, UV-Vis)", "type": "in vitro ADME", "settings": "bovine serum albumin 8 wt.% in PBS, 1 hour at room temperature, 30 kDa filter", "method": "A 5 mM stock solution of the iron chelate complex under investigation was prepared in PBS, and the UV/visible spectrum of the solution was acquired to determine the wavelength of the absorbance maximum (λmax). An aliquot of the stock solution (500 μL) was added to a PBS solution (2 mL) containing bovine serum albumin (8 wt.%). A control sample was prepared by diluting a second aliquot of the stock solution (500 μL) with PBS (2 mL). The samples were vortexed briefly and then allowed to stand for 1 hour at room temperature. At the stipulated time, the resulting solutions were transferred to Amicon Ultra filters (4 mL, MWCO = 30 kDa). The solutions were centrifuged (3000 rcf, 15 min), and the permeate was taken directly for UV-Vis measurement. The wavelength and intensity of λmax in the visible region for the solution were recorded. The relative amount of free and protein-bound agent was calculated from the λmax intensity ratio of the assay to control samples."}},
  "note": "Like-named read-outs stand apart in the source and are kept apart here.",
  "data": [
    {"smiles": "O=C1CN2CCN3CC(=O)[O][Fe]([O]1)([O]c1ccc(S(=O)(=O)O)cc1C2)[O]c1ccc(S(=O)(=O)O)cc1C3", "note": "[Fe-2]", "values": [
      {"measurement": "pseudo-first-rate time constant for ascorbic acid consumption, relative to Fe-EDTA", "setting": "[1]", "value": "< 0.5", "unit": "%"},
      {"measurement": "r1", "setting": "[2]", "value": 0.9, "unit": "mM⁻¹ s⁻¹"}
    ]},
    {"smiles": "CNC[C@H](O)[C@@H](O)[C@H](O)[C@H](O)CO.CNC[C@H](O)[C@@H](O)[C@H](O)[C@H](O)CO.O=C([O-])CN(CCN(CC(=O)[O-])CC(=O)O)CCN(CC(=O)[O-])CC(=O)O.[Gd+3]", "note": "[Gd-1, Gadopentetate dimeglumine]", "values": [
      {"measurement": "r1", "setting": "[3]", "value": 3.3, "unit": "mM⁻¹ s⁻¹"}
    ]},
    {"smiles": "O=C(O)CN(CCN(CC(=O)O)Cc1ccccc1O)Cc1ccccc1O", "note": "[HBED, N,N′-bis(2-hydroxyphenyl)ethylenediamine-N,N′-diacetic acid]", "values": [
      {"measurement": "log K (Fe[III] binding)", "setting": "[4]", "value": 39.7}
    ]},
    {"smiles": "O=P1(O)CN2CCN3Cc4cccc(CO)c4[O][Fe]([O]c4c(CO)cccc4C2)([O]1)[O]P(=O)(O)C3", "note": "[Fe-4]", "values": [
      {"measurement": "r1", "setting": "[2]", "value": 0.9, "unit": "mM⁻¹ s⁻¹"},
      {"measurement": "Protein binding", "setting": "[5]", "value": 20, "unit": "%"}
    ]},
    {"smiles": "O=P1(O)CN2CCN3Cc4ccccc4[O][Fe]([O]c4ccccc4C2)([O]1)[O]P(=O)(O)C3", "note": "[Fe-3]", "values": [
      {"measurement": "pseudo-first-rate time constant for ascorbic acid consumption, relative to Fe-EDTA", "setting": "[1]", "value": "< 0.5", "unit": "%"},
      {"measurement": "r1", "setting": "[2]", "value": 1.3, "unit": "mM⁻¹ s⁻¹"},
      {"measurement": "Protein binding", "setting": "[5]", "value": 49, "unit": "%"}
    ]},
    {"smiles": "O=C1CN2CCN3CC(=O)[O][Fe]([O]1)([O]c1ccccc1C2)[O]c1ccccc1C3", "note": "[Fe-1]", "values": [
      {"measurement": "r1", "setting": "[2]", "value": 0.49, "unit": "mM⁻¹ s⁻¹"},
      {"measurement": "Protein binding", "setting": "[5]", "value": 33, "unit": "%"}
    ]}
  ]
}
